“Also recorded” adds a separate entry of the source.
Experiments:
[1] = biological target: T1, Purified rabbit 20S proteasome (Oryctolagus cuniculus, UniProt G1T4Q9); experiment: Inhibition of chymotrypsin-like activity of purified 20S proteasome; type: biochemical; settings: for inhibition of proteasomal chymotryptic activity (in words): 2 h; for IC50: Suc-LLVY-AMC, 2 h at 37° C., read-out: IC50, inhibition of proteasomal chymotrypsin-like activity
T1 sequence (G1T4Q9 60-263): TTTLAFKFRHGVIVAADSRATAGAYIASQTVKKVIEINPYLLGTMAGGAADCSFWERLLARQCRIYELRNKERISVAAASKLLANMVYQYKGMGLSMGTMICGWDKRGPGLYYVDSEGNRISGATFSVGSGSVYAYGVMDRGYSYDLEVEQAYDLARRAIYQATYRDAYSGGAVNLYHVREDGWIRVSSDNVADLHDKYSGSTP
Source text: EGCG was used as a comparative standard. Materials. Purified rabbit 20S proteasome and fluorogenic substrate Suc-LLVY-AMC for the proteasomal chymotrypsinlike (CT-like) activity were obtained from Calbiochem Inc. (San Diego, Calif.). Fetal bovine serum (FBS) was from Tissue Culture Biologicals (Tulare, Calif.). Penicillin and streptomycin were purchased from Invitrogen Co. (Carlsbad, Calif.). RPMI 1640 medium was purchased from Invitrogen Co. (Carlsbad, Calif.). […] Inhibition of purified 20S proteasome activity by EGCG and its analogs.

[2] = system: cancer cell lines; settings: a number of cancer cell lines; cited from earlier work
[3] = system: human multiple myeloma ARP cells; experiment: MTT assay in multiple myeloma ARP cells, alone or combined with Velcade; type: cell-based; settings: 48 hrs; for effect on cell proliferation in combination with bortezomib (in words): 20 μM with varying doses of Velcade; for inhibition of cell proliferation as single agent (in words): ARP cells
Procedure: The cells were treated with Velcade alone or with 20 μM of compounds 5, 7 and 23 or in combination with varying doses of Velcade for 48 hrs, followed by a MTT assay.
Deep purple color indicates fully viable cells; light purple color indicates a reduced number of viable cells; and yellowish color indicates an absence of viable cells.
MTT assay. Cells were grown in a 96-well plate. Triplicate wells of cells were treated with indicated concentrations of EGCG or EGCG analogs for 24 h. After aspiration of medium, MTT (1 mg/ml) was then added to the cell cultures, followed by incubation for 3 h at 37° C. After cells were crystallized, MTT was removed and DMSO was added to dissolve the metabolized MTT product. The absorbance was then measured on a Wallac Victor3 1420 Multi-label counter at 540 nm.

SMILES: CC(=O)Oc1cc(OC(C)=O)c2c(c1)O[C@H](c1cc(OC(C)=O)c(OC(C)=O)c(OC(C)=O)c1)[C@H](OC(=O)c1cc(OC(C)=O)c(OC(C)=O)c(OC(C)=O)c1)C2 [Compound 4, (−)Epigallocatechin gallate octa acetate, reference compound]
- inhibition of proteasomal chymotryptic activity (in words) [1]: none of the resulting derivatives 4, 6, 8, 17 and 22 exhibited proteasomal inhibition
- growth inhibitory activity compared to EGCG (1) (in words) [2]: enhanced growth inhibitory activity

SMILES: O=C(O[C@H]1Cc2ccccc2C[C@H]1OC(=O)c1cc(O)c(O)c(O)c1)c1cc(O)c(O)c(O)c1 [Compound 5]
- IC50 [1]: 19 µM
- effect on cell proliferation in combination with bortezomib (in words) [3]: interfered with; also recorded: partially block the inhibitory effect of bortezomib

SMILES: O=C(O[C@H]1Cc2ccccc2C[C@H]1OC(=O)c1cc(O)cc(O)c1)c1cc(O)cc(O)c1 [Compound 7]
- IC50 [1]: 29 µM
- effect on cell proliferation in combination with bortezomib (in words) [3]: synergistic inhibitory effect
- inhibition of cell proliferation as single agent (in words) [3]: most potent cell proliferation inhibitor

SMILES: CC(=O)Oc1cc(C(=O)O[C@H]2Cc3ccccc3C[C@H]2OC(C)=O)cc(OC(C)=O)c1OC(C)=O [Compound 17]
- inhibition of proteasomal chymotryptic activity (in words) [1]: none of the resulting derivatives 4, 6, 8, 17 and 22 exhibited proteasomal inhibition

SMILES: CC(=O)Oc1cc(OC(C)=O)cc(C(=O)O[C@H]2Cc3ccccc3C[C@H]2OC(C)=O)c1 [Compound 22]
- inhibition of proteasomal chymotryptic activity (in words) [1]: none of the resulting derivatives 4, 6, 8, 17 and 22 exhibited proteasomal inhibition

SMILES: O=C(O[C@@H]1Cc2c(O)cc(O)cc2O[C@@H]1c1cc(O)c(O)c(O)c1)c1cc(O)c(O)c(O)c1 [EGCG, (−)Epigallocatechin gallate, reference compound]
- inhibition of proteasomal chymotryptic activity (in words) [1]: potently inhibited

SMILES: CC(C)C[C@H](NC(=O)[C@H](Cc1ccccc1)NC(=O)c1cnccn1)B(O)O [bortezomib, reference compound]
- inhibition of cell proliferation as single agent (in words) [3]: reduced cell proliferation in a dose-dependent manner
